Measurements from patent US20260158136A1, “MEDICAMENT FOR TREATMENT AND/OR PREVENTION OF CANCER” (TORAY INDUSTRIES, INC., priority 2022, published 2026).

Tests used:
Assay type in all cases: cell-based
[1] = system: human colon cancer cell line (HCT116); assay: THP-1-mediated phagocytic activity against HCT116, anti-CAPRIN-1 antibody with palbociclib or abemaciclib, control IgG included (Example 2B); details: Dunnett's test, p<0.001; anti-CAPRIN-1 antibody treatment group; FIG. 2
Procedure: (§1) Specifically, in CDK inhibitor combination test group, the indicated drug used in combination was applied to human cancer cells, and then the cancer cells were cocultured with human monocytic cells (THP-1) in the presence of the anti-CAPRIN-1 antibody, and the antibody-mediated phagocytic activity against the cancer cells by THP-1 was evaluated. A human IgG antibody (Sigma-Aldrich Co. LLC, Cat. No.: 4506) was used as a control antibody.
(§2) The human-derived cancer cell used was a colon cancer cell line HCT116. On a 6-well plate, the human-derived cancer cells were cultured for 2 days in the presence of the palbociclib (10 M) or abemaciclib (1 μM), for the CDK inhibitor combination test group. As a control, a test group without a drug used in combination, in which only the anti-CAPRIN-1 antibody was added, was established. […]
(§3) Each cancer cell line after the culture was dissociated with TrypLE Express (Thermo), and the cancer cells were stained by the addition of calcein-AM at a final concentration of 0.04 μg/mL and incubation at 37° C. for 10 minutes. […] Further, dead cells were stained with propidium iodide (PI) (final concentration: 0.1 μg/mL), followed by the measurement of fluorescence from the cells by flow cytometry. […] Thus, the phagocytic activity in this evaluation system was calculated as the ratio (%) of APC-positive/calcein-AM-positive cells to the whole calcein-AM-positive population.

[2] = system: human colon cancer cell line (HCT116); assay: THP-1-mediated phagocytic activity against HCT116, anti-CAPRIN-1 antibody with palbociclib or abemaciclib (Example 2A); details: Student's t test, p<0.001; with anti-CAPRIN-1 antibody; FIG. 1
Procedure: as §1, with “evaluated.” for “evaluated. A human IgG antibody (Sigma-Aldrich Co. LLC, Cat. No.: 4506) was used as a control antibody.”
as §2, with “of” for “of the”, “μM)” for “M)”, “μM)” for “μM),”
as §3

[3] = system: human colon cancer cell line (HCT116); assay: THP-1-mediated phagocytic activity against HCT116, anti-CAPRIN-1 antibody with palbociclib or cisplatin (Example 5); details: for phagocytic activity of combination test group compared with test group without a drug used in combination: Dunnett's test, with anti-CAPRIN-1 antibody, FIG. 5; for phagocytic activity against cancer cells: drug combination test group: HCT116 cultured 2 days with palbociclib 10 μM or cisplatin 1 μM, then anti-CAPRIN-1 humanized antibody #1 1 μg/mL + THP-1, 1 h
Procedure: as §1, with “each” for “CDK”, “evaluated.” for “evaluated. A human IgG antibody (Sigma-Aldrich Co. LLC, Cat. No.: 4506) was used as a control antibody.”
The human-derived cancer cell used was a colon cancer cell line HCT116. On a 6-well plate, the human-derived cancer cells were cultured for 2 days in the presence of the respective drugs used in combination, for the palbociclib combination test group. Specifically, palbociclib was added at a concentration of 10 μM and cisplatin at a concentration of 1 μM to HCT 116. As a control, a test group without a drug used in combination, in which only the anti-CAPRIN-1 antibody was added, was established. In the control group, the cancer cells were cultured for 2 days without addition of the drug used in combination beforehand.
(§4) Each cancer cell line after the culture was dissociated with TrypLE Express (Thermo), and the cancer cells were stained by the addition of calcein-AM at a final concentration of 0.04 μg/mL and incubation at 37° C. for 10 minutes. Next, the cells were dispensed at 1×10^4 cancer cells per well to a 96-well plate, and the anti-CAPRIN-1 antibody at a final concentration of 1 μg/mL and 10×10^5 THP-1 cells were added to each well, followed by culture at 37° C. for 1 hour under a condition of 5% CO2. Then, the cells were washed with PBS (phosphate buffer solution) containing 1% FBS (fetal bovine serum), and the human monocytic cells were stained through a reaction with an APC (allophycocyanin)-labeled anti-human CD45 antibody (final concentration: 0.25 μg/mL). Further, dead cells were stained with propidium iodide (PI) (final concentration: 0.1 μg/mL), followed by the measurement of fluorescence from the cells by flow cytometry. PI-positive dead cells were excluded from analysis. The human monocytic cells THP-1 recognize an antibody bound onto cancer cells and phagocytize the cancer cells. At that time, if the cancer cells have been stained with calcein-AM, the monocytic cells ingesting the cancer cells by phagocytosis also become positive to calcein-AM. Thus, the phagocytic activity in this evaluation system was calculated as the ratio (%) of APC-positive/calcein-AM-positive cells to the whole calcein-AM-positive population.

[4] = system: human colon cancer cell line (HCT116); assay: THP-1-mediated phagocytic activity against HCT116, anti-CAPRIN-1 antibody with ribociclib (Example 3)
Procedure: as §1, with “ribociclib” for “drug used in combination”, “evaluated.” for “evaluated. A human IgG antibody (Sigma-Aldrich Co. LLC, Cat. No.: 4506) was used as a control antibody.”
The human-derived cancer cell used was a colon cancer cell line HCT116. On a 6-well plate, the human-derived cancer cells were cultured for 2 days in the presence of the ribociclib (30 μM), for the CDK inhibitor combination test group. As a control, a test group without a drug used in combination, in which only the anti-CAPRIN-1 antibody was added, was established. In the control group, the cancer cells were cultured for 2 days without addition of the drug used in combination beforehand.
as §4, with “5×10^3” for “1×10^4”, “1.25×10^5” for “10×10^5”, “At that time, if the cancer cells have been stained with calcein-AM, the monocytic cells ingesting the cancer cells by phagocytosis also become positive to calcein-AM.” left out

[5] = system: human colon cancer cell line (HCT116); assay: THP-1-mediated phagocytic activity against HCT116, anti-CAPRIN-1, anti-CD20 or anti-HER-2 antibody alone or with palbociclib (Example 4)
Procedure: The human-derived cancer cell used was a colon cancer cell line HCT116. On a 6-well plate, the human-derived cancer cells were cultured for 2 days in the presence of the respective drugs used in combination for the palbociclib combination test group. Specifically, palbociclib was added at a concentration of 10 μM to HCT 116. […] In the control group, the cancer cells were cultured for 2 days without addition of palbociclib beforehand.
as §4, with “Next, the cells were dispensed at 1×10^4 cancer cells per well to a 96-well plate, and the anti-CAPRIN-1 antibody at a final concentration of 1 μg/mL and 10×10^5 THP-1 cells were added to each well, followed by culture at 37° C. for 1 hour under a condition of 5% CO2.” left out, “[…]).” for “μg/mL).”

Row | Compound | phagocytic activity of combination test group compared with test group without a drug used in combination [1] | phagocytic activity of combination test group compared with test group without a drug used in combination [2] | phagocytic activity of combination test group compared with test group without a drug used in combination [3] | phagocytic activity against cancer cells [3] | other results
1 | CCN1CCN(Cc2ccc(Nc3ncc(F)c(-c4cc(F)c5nc(C)n(C(C)C)c5c4)n3)nc2)CC1 [abemaciclib, N-[5-[(4-ethylpiperazin-1-yl)methyl]pyridin-2-yl]-5-fluoro-4-(7-fluoro-2-methyl-3-propan-2-ylbenzimidazol-5-yl)pyrimidin-2-amine] | significantly higher | significantly higher |  |  | 
2 | N.N.[Cl][Pt][Cl] [cisplatin] |  |  | no significant change | ≤ 23% | 
3 | CC(=O)c1c(C)c2cnc(Nc3ccc(N4CCNCC4)cn3)nc2n(C2CCCC2)c1=O [palbociclib, 6-acetyl-8-cyclopentyl-5-methyl-2-[(5-piperazin-1-ylpyridin-2-yl)amino]pyrido[2,3-d]pyrimidin-7-one] | significantly higher | significantly higher | significantly higher | ≥ 54% | 
4 | CN(C)C(=O)c1cc2cnc(Nc3ccc(N4CCNCC4)cn3)nc2n1C1CCCC1 [ribociclib, 7-cyclopentyl-N,N-dimethyl-2-[(5-piperazin-1-ylpyridin-2-yl)amino]pyrrolo[2,3-d]pyrimidine-6-carboxamide] |  |  |  |  | phagocytic activity of combination test group compared with test group without a drug used in combination ([4]; Dunnett's test, p<0.001, with anti-CAPRIN-1 antibody, FIG. 3): significantly higher; increase of antitumor effect of the anti-CAPRIN-1 antibody by the combination ([4]; combination versus antibody alone, HCT116): ≥ 2.5 times; phagocytic activity against cancer cells ([4]; ribociclib combination test group: HCT116 cultured 2 days with ribociclib 30 μM, then anti-CAPRIN-1 humanized antibody #1 1 μg/mL + THP-1, 1 h): ≥ 58%
5 | anti-CD20 antibody: anti-CD20 antibody ("Rituxan") purchased from Chugai Pharmaceutical Co., Ltd. |  |  |  |  | effect of palbociclib combination on phagocytic activity compared with antibody without a drug used in combination ([5]; palbociclib 10 μM, Dunnett's test, FIG. 4): not remarkably increased; phagocytic activity against cancer cells ([5]; palbociclib combination test group: HCT116 cultured 2 days with palbociclib 10 μM, then antibody at final concentration 1 μg/mL + THP-1, 1 h): ≤ 11%; phagocytic activity against cancer cells ([5]; test group without a drug used in combination: antibody only, 1 μg/mL + THP-1, 1 h): ≤ 7%
